Assay results as given in ChEMBL document CHEMBL5678800 (Mol Cancer Ther, 2009).
Calls of active or inactive are those of the source. The rule behind the calls is not given here.

Columns and labels:
[1] = target: Protein kinase C alpha type (Homo sapiens, UniProt P17252); assay: Inhibition of recombinant PKCalpha (unknown origin) incubated for 60 mins in presence of ATP by electrophoretic caliper fluorescence analysis
[2] = target: T1, Protein kinase C zeta type (Homo sapiens, UniProt Q05513); assay: Inhibition of recombinant PKCzeta (unknown origin) incubated for 60 mins in presence of ATP by electrophoretic caliper fluorescence analysis
T1 sequence (Q05513 whole entry): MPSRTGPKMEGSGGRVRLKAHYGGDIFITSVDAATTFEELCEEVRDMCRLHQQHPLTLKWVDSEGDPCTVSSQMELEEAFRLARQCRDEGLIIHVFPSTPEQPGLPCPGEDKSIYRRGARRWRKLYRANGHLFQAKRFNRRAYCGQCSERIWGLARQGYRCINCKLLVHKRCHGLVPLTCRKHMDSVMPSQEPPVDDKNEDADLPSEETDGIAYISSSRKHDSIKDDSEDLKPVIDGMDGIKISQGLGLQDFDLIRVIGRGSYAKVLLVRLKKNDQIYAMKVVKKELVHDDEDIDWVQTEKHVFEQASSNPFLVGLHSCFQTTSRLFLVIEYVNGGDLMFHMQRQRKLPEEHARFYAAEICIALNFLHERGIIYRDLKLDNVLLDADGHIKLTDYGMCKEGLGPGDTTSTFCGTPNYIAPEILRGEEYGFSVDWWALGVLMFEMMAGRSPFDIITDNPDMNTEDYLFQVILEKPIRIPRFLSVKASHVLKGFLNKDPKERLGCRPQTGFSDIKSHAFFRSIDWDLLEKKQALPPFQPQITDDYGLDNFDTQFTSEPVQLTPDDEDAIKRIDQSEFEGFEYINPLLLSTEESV

[3] = target: High affinity nerve growth factor receptor (Rattus norvegicus, UniProt P35739); assay: Inhibition of TrkA autophosphorylation in rat CD8-TrkA cells by Western blotting analysis; assay type: cell-based
[4] = system: Rh41; assay: Induction of cell cycle arrest in human Rh41 cells assessed as accumulation of cells at G2/M phase at 10x IC50 incubated for 24 hrs by propidium iodide staining based flow cytometry analysis relative to control; assay type: functional
[5] = system: IGF-1R-Sal; assay: In vivo inhibition of IGF-1R phosphorylation in mouse IGF-1R-Sal cells xenografted in nude mouse at 12.5 mg/kg, po administered for 30 mins by Western blotting analysis; assay type: functional, organism-based
[6] = system: Mus musculus; assay: Anti-diabetic activity against nude mouse xenografted with mouse IGF-1R-Sal cells assessed as increased serum glucose level at 3.125 mg/kg, po administered for 2 hrs by oral glucose tolerance test (Rvb= 97.40 +/- 5.0 mg/dl); assay type: functional
[7] = system: Mus musculus; assay: Anti-diabetic activity against nude mouse xenografted with mouse IGF-1R-Sal cells assessed as increased serum glucose level at 25 mg/kg, po administered for 2 hrs by oral glucose tolerance test (Rvb= 97.40 +/- 5.0 mg/dl); assay type: functional
[8] = Plasma concentration in nude mouse xenografted with mouse IGF-1R-Sal cells at 12.5 mg/kg, po administered for 2 hrs by LC-MS/MS analysis; assay type: ADME, organism-based
[9] = Antitumor activity against mouse IGF-1R-Sal cells xenografted in nude mouse assessed as tumor growth inhibition at 3.1 to 12.5 mg/kg, po administered for 4 days relative to control; assay type: functional; details: dose 3.1-12.5 mg/kg, time 4 day
[10] = Antitumor activity against mouse IGF-1R-Sal cells xenografted in nude mouse assessed as tumor growth inhibition at 6.25 to 150 mg/kg, po administered for 4 days relative to control; assay type: functional; details: dose 6.25-150 mg/kg, time 4 day
[11] = system: GEO; assay: Antitumor activity against human GEO cells xenografted in nude mouse assessed as tumor growth inhibition at 25-50 mg/kg, po administered for 14 days relative to control; assay type: functional; details: 336 h, time 14 day, read-out: TGI
[12] = system: COLO 205; assay: Antitumor activity against human COLO 205 cells xenografted in nude mouse assessed as tumor growth inhibition at 50 mg/kg, po administered for 23 days relative to control; assay type: functional; details: COLO 205, 552 h, time 23 day, read-out: TGI
[13] = system: Rh41; assay: Antitumor activity against human Rh41 cells xenografted in nude mouse assessed as tumor growth inhibition at 3.1 to 25 mg/kg, po administered for 14 days relative to control; assay type: functional; details: dose 3.1-25 mg/kg, time 14 day
[14] = system: GEO; assay: Antitumor activity against human GEO cells xenografted in nude mouse assessed as tumor growth inhibition at 25 mg/kg, po administered for 17 days relative to control; assay type: functional; details: 408 h, time 17 day, read-out: TGI
[15] = system: GEO; assay: Antitumor activity against human GEO cells xenografted in nude mouse assessed as tumor growth inhibition at 12.5 mg/kg, po administered for 3 days in presence of cetuximab at 0.125 mg/kg relative to control; assay type: functional; details: 72 h, time 3 day, read-out: TGI
[16] = system: GEO; assay: Antitumor activity against human GEO cells xenografted in nude mouse assessed as tumor growth delay time at 12.5 mg/kg, po administered for 17 days relative to control; assay type: functional; details: time 17 day
[17] = system: GEO; assay: Antitumor activity against human GEO cells xenografted in nude mouse assessed as tumor growth delay time at 12.5 mg/kg, po administered for 3 days in presence of cetuximab at 0.25 mg/kg relative to control; assay type: functional; details: time 3 day
[18] = system: GEO; assay: Antitumor activity against human GEO cells xenografted in nude mouse assessed as tumor growth delay time at 6.25 mg/kg, po administered for 3 days in presence of cetuximab at 0.25 mg/kg relative to control; assay type: functional; details: time 3 day
[19] = Toxicity in nude mouse xenografted with human GEO cells assessed as body weight loss at 12.5 mg/kg, po administered for 3 days in presence of cetuximab at 0.25 mg/kg relative to control; assay type: organism-based; details: in vivo, 72 h, time 3 day
[20] = Toxicity in nude mouse xenografted with human GEO cells assessed as body weight loss at 25 mg/kg, po administered for 3 days in presence of cetuximab at 0.125 mg/kg relative to control; assay type: organism-based; details: in vivo, 72 h, time 3 day
[21] = Toxicity in nude mouse xenografted with human GEO cells assessed as mortality at 12.5 mg/kg, po administered for 17 days relative to control; assay type: organism-based; details: in vivo, time 17 day
[22] = Toxicity in nude mouse xenografted with human GEO cells assessed as mortality at 6.25 mg/kg, po administered for 3 days in presence of cetuximab at 0.25 mg/kg relative to control; assay type: organism-based; details: in vivo, time 3 day
[23] = Plasma concentration in nude mouse xenografted with mouse IGF-1R-Sal cells po administered for 2 hrs by LC-MS/MS analysis
[24] = system: RD1; assay: Antitumor activity against human RD1 cells xenografted in nude mouse assessed as tumor growth inhibition at 50 mg/kg, po administered for 14 days relative to control; details: 336 h, read-out: TGI
[25] = system: Rh41; assay: Induction of cell cycle arrest in human Rh41 cells assessed as accumulation of cells at sub-G1 phase at 10x IC50 incubated for 24 hrs by propidium iodide staining based flow cytometry analysis (reference value: […])

Sequence of High affinity nerve growth factor receptor (P35739 whole entry): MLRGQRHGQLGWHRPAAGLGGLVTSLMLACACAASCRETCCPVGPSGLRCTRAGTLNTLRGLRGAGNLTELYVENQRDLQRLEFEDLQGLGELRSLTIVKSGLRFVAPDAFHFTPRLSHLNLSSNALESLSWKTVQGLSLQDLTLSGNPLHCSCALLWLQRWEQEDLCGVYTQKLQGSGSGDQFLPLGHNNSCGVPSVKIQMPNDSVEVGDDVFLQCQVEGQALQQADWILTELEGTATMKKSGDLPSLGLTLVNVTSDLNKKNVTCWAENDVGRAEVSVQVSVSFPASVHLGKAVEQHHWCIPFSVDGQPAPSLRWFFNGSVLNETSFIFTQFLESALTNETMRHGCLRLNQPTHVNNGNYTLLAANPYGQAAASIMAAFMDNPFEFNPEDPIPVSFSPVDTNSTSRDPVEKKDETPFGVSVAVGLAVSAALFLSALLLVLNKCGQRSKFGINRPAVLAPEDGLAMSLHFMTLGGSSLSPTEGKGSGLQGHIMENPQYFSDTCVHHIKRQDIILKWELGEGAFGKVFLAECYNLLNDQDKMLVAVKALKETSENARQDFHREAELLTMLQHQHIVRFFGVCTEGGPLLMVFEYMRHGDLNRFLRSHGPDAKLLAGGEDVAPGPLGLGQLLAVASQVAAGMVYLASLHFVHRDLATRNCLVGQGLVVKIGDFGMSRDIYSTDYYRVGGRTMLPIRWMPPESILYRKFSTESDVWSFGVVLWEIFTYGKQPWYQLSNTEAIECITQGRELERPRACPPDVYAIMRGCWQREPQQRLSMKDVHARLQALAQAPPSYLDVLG

With `C[C@@]1(C(=O)Nc2ccc(F)nc2)CCCN1c1nc(Nc2cc(C3CC3)n[nH]2)c2cccn2n1` [BMS-754807] the IC50 [1] was 2530 nM, the IC50 [2] was > 50000 nM and the IC50 [3] was 1020 nM. The Activity [4] was 2.8%, the inhibition [5] was “Active” and the Activity [6] was 91 mg/dL. For the same compound, the Activity [7] was 95 mg/dL, the concentration at 2 h [8] was 29 nM and the TGI [9] was 80%. It also gave a TGI [10] of 67%, an inhibition in vivo at 50 mg/kg [11] of 41% and an inhibition in vivo at 50 mg/kg [12] of 53%. The TGI [13] was 65%, the inhibition in vivo at 25 mg/kg [14] was 61% and the inhibition in vivo at 12.5 mg/kg [15] was 86%. The Time [16] was 4 days, the Time [17] was 38 days and the Time [18] was 23 days. The Activity [19] was 1.2 g, the Activity [20] was 0.6 g and the mortality at 408 h [21] was 0%. It also gave a mortality at 72 h [22] of 0%, a concentration at 2 h [23] of 94 nM and an inhibition in vivo at 50 mg/kg [24] of 58%. It also gave an Activity [25] of 23.1%.
